Data as given in DBAASP.
Converted amounts (≈) assume the structure as drawn. “And” between values parts separate entries of the source, which are not always exact repeats. Equal entries are not always repeated. Each block holds one molecule with its values, some of them ahead of it.

How the values were obtained:
Experiment in all cases: ≥ marks a high value that may be exact or a test limit, other limits are often not marked, values filed in µg/mL are converted to µM
[1] = system: Acinetobacter baumannii ATCC 19606
Acinetobacter baumannii = system: Acinetobacter baumannii
[2] = system: Bacillus subtilis ATCC 23857
[3] = system: Enterococcus faecalis ATCC 29212
Escherichia coli 780 = system: Escherichia coli 780
Escherichia coli 850 = system: Escherichia coli 850
[4] = system: Escherichia coli ATCC 25922
[5] = system: Klebsiella pneumoniae ATCC 700603
[6] = system: Pseudomonas aeruginosa 2760
[7] = system: Pseudomonas aeruginosa ATCC 27853
[8] = system: Staphylococcus aureus 725
[9] = system: Staphylococcus aureus 936
[10] = system: Staphylococcus aureus ATCC 25923
[11] = system: Cronobacter muytjensii ATCC 51329
[12] = system: Cronobacter sakazakii ATCC BAA-894
[13] = system: Cronobacter sakazakii DPC 6440
[14] = system: Cronobacter sakazakii DSM 4485
[15] = system: Escherichia coli NCIMB 11843
[16] = system: Klebsiella pneumoniae NCIMB 13218
[17] = system: Pseudomonas fluorescens NCIMB 9046
[18] = system: Salmonella enterica subsp. enterica serovar Typhimurium LT2
[19] = system: Staphylococcus aureus NCTC 8325-4
[20] = system: Staphylococcus aureus Newman
[21] = system: Staphylococcus aureus RF122
[22] = system: Staphylococcus aureus RN4220
[23] = system: Staphylococcus aureus SA113
[24] = system: Candida albicans ATCC 10231
Candida glabrata 090902 = system: Candida glabrata 090902
[25] = system: Enterobacter cloacae CGMCC 1.57
[26] = system: Enterococcus faecalis 981
[27] = system: Enterococcus faecium 091299
[28] = system: Klebsiella pneumoniae 08040724
[29] = system: Nocardia asteroides 201118
[30] = system: Psychrobacter faecalis X29
Bacillus subtilis PS832 = system: Bacillus subtilis PS832
Escherichia coli DL7 = system: Escherichia coli DL7
[31] = system: Klebsiella aerogenes ATCC 13048
[32] = system: Staphylococcus epidermidis ATCC 12228
[33] = system: Pseudomonas aeruginosa ATCC 10419
[34] = system: Pseudomonas aeruginosa ATCC 21625
[35] = system: Pseudomonas aeruginosa ATCC 21630
[36] = system: Pseudomonas aeruginosa LCCE
[37] = system: Pseudomonas aeruginosa LCCI
[38] = system: Pseudomonas aeruginosa LCGE
[39] = system: Pseudomonas aeruginosa LC
[40] = system: Salmonella enterica subsp. enterica serovar Typhimurium C77-31
[41] = system: Staphylococcus aureus ATCC 29213
[42] = system: Bacillus anthracis Sterne 34F2
[43] = system: Bacillus subtilis ATCC 9372
[44] = system: Burkholderia thailandensis

MIC [1]: 3.62 µM (≈ 8 µg/mL)
MIC (Acinetobacter baumannii): 3.62 µM (≈ 8 µg/mL)
MIC [2]: 3.62 µM (≈ 8 µg/mL)
MIC [3]: > 58 µM
MIC (Escherichia coli 780): 14.5 µM (≈ 32 µg/mL)
MIC (Escherichia coli 850): 7.24 µM (≈ 16 µg/mL)
MIC [4]: 7.24 µM (≈ 16 µg/mL)
MIC [5]: 29 µM (≈ 64 µg/mL)
MIC [6]: 29 µM (≈ 64 µg/mL)
MIC [7]: 58 µM (≈ 128 µg/mL)
MIC [8]: 29 µM (≈ 64 µg/mL)
MIC [9]: ≥ 58 µM
MIC [10]: 58 µM (≈ 128 µg/mL)
SMILES: CC[C@H](C)[C@H](NC(=O)[C@H](CCCCN)NC(=O)[C@H](CCCCN)NC(=O)[C@H](C)NC(=O)[C@H](CC(C)C)NC(=O)[C@H](C)NC(=O)[C@H](C)NC(=O)[C@H](CC(C)C)NC(=O)[C@@H]1CCCN1C(=O)[C@H](CCCCN)NC(=O)[C@H](CC(C)C)NC(=O)[C@H](CC(N)=O)NC(=O)[C@@H](NC(=O)[C@H](CCCCN)NC(=O)CNC(=O)[C@H](CC(C)C)NC(=O)[C@H](CC(C)C)NC(=O)[C@H](Cc1ccc(O)cc1)NC(=O)CNC(=O)[C@H](C)N)[C@@H](C)CC)C(=O)N[C@@H](CC(C)C)C(N)=O [AGYLLGKINLKPLAALAKKIL]

MIC [11]: ≥ 1250 µM
MIC [12]: ≥ 1250 µM
MIC [13]: ≥ 1250 µM
MIC [14]: ≥ 1250 µM
MIC [15]: ≥ 2500 µM
MIC [16]: ≥ 2500 µM
MIC [17]: ≥ 2500 µM
MIC [18]: ≥ 2500 µM
MIC [19]: ≥ 1250 µM
MIC [20]: ≥ 2500 µM
MIC [21]: ≥ 2500 µM
MIC [22]: ≥ 2500 µM
MIC [23]: ≥ 2500 µM
SMILES: CC(C)C[C@H](NC(=O)CNC(=O)[C@H](CCC(N)=O)NC(=O)[C@H](Cc1cnc[nH]1)NC(=O)[C@H](CCCCN)NC(=O)[C@H](C)N)C(=O)N1CCC[C@H]1C(=O)N[C@@H](CCC(N)=O)C(=O)N[C@@H](CCC(=O)O)C(=O)O [AKHQGLPQE]

MIC [24]: 50 µM (≈ 126 µg/mL)
MIC (Candida glabrata 090902): 3.1 µM (≈ 7.82 µg/mL)
MIC [25]: ≥ 100 µM
MIC [26]: 3.1 µM (≈ 7.82 µg/mL)
MIC [27]: ≥ 100 µM
MIC [4]: 100 µM (≈ 252 µg/mL)
MIC [28]: ≥ 100 µM
MIC [29]: 3.1 µM (≈ 7.82 µg/mL)
MIC [30]: 25 µM (≈ 63 µg/mL)
MIC [10]: 3.1 µM (≈ 7.82 µg/mL)
SMILES: CC[C@H](C)[C@H](NC(=O)CNC(=O)[C@@H](NC(=O)[C@H](C)NC(=O)[C@H](C)NC(=O)[C@H](CCCCN)NC(=O)[C@@H](NC(=O)[C@H](CC(C)C)NC(=O)CNC(=O)[C@@H]1CCCN1C(=O)[C@H](CC(C)C)NC(=O)[C@@H](N)Cc1ccccc1)[C@@H](C)CC)C(C)C)C(=O)NCC(=O)N[C@@H](CO)C(=O)N[C@H](C(=O)N[C@H](C(=O)N[C@@H](Cc1ccccc1)C(=O)N[C@H]1CSSC[C@@H](C(=O)O)NC(=O)[C@H](CCCCN)NC(=O)[C@H](CCCN=C(N)N)NC(=O)[C@H](CO)NC(=O)[C@H]([C@@H](C)CC)NC(=O)[C@H](CCCCN)NC1=O)[C@@H](C)CC)[C@@H](C)O [FLPGLIKAAVGIGSTIFCKISRKC]

MIC (Bacillus subtilis PS832): 4 µM (≈ 9.01 µg/mL)
MIC (Escherichia coli DL7): 16 µM and 8 µM
MIC [31]: ≥ 32 µM
MIC [32]: 16 µM (≈ 36.1 µg/mL)
SMILES: CC(C)C[C@H](NC(=O)CNC(=O)[C@H](C)NC(=O)[C@H](CCCN=C(N)N)NC(=O)[C@H](Cc1cnc[nH]1)NC(=O)CNC(=O)CN)C(=O)N[C@@H](CCC(N)=O)C(=O)N[C@@H](Cc1ccccc1)C(=O)N1CCC[C@H]1C(=O)N[C@H](C(=O)NCC(=O)N[C@@H](CCCN=C(N)N)C(=O)N[C@H](C(=O)N[C@@H](Cc1cnc[nH]1)C(=O)N[C@@H](CCCN=C(N)N)C(=O)N[C@@H](CC(C)C)C(=O)N[C@@H](CC(C)C)C(=O)N[C@@H](CCCN=C(N)N)C(=O)N[C@@H](CCCCN)C(N)=O)C(C)C)C(C)C [GGHRAGLQFPVGRVHRLLRK]

MIC [4]: 64 µM (≈ 143 µg/mL)
MIC [33]: ≥ 256 µM
MIC [34]: ≥ 256 µM
MIC [35]: ≥ 256 µM
MIC [7]: 256 µM (≈ 571 µg/mL)
MIC [36]: ≥ 256 µM
MIC [37]: ≥ 256 µM
MIC [38]: ≥ 256 µM
MIC [39]: ≥ 64 µM
MIC [40]: ≥ 128 µM
MIC [41]: 128 µM (≈ 285 µg/mL)
MIC [32]: 32 µM (≈ 71.3 µg/mL)
SMILES: CC[C@H](C)[C@H](NC(=O)[C@H](CCCCN)NC(=O)[C@H](CCCCN)NC(=O)[C@H](CC(C)C)NC(=O)[C@H](CCCN=C(N)N)NC(=O)[C@H](CCCCN)NC(=O)[C@H](CCCN=C(N)N)NC(=O)[C@H](Cc1ccccc1)NC(=O)[C@H](CCCCN)NC(=O)[C@H](CCCCN)NC(=O)[C@H](CCCN=C(N)N)NC(=O)[C@H](CC(C)C)NC(=O)[C@H](CCCN=C(N)N)NC(=O)[C@H](CCCN=C(N)N)NC(=O)[C@H](Cc1ccccc1)NC(=O)[C@@H](N)CCCN=C(N)N)C(N)=O [RFRRLRKKFRKRLKKI]

SMILES: CSCC[C@H](NC(=O)[C@H](CO)NC(=O)[C@H](Cc1ccc(O)cc1)NC(=O)[C@H](CO)NC(C)=O)C(=O)N[C@@H](CCC(=O)O)C(=O)N[C@@H](Cc1cnc[nH]1)C(=O)N[C@@H](Cc1ccccc1)C(=O)N[C@@H](CCCN=C(N)N)C(=O)N[C@@H](Cc1c[nH]c2ccccc12)C(=O)NCC(=O)N[C@@H](CCCCN)C(=O)N1CCC[C@H]1C(=O)N[C@H](C(N)=O)C(C)C [SYSMEHFRWGKPV]
MIC [42]: ≥ 100 µM
MIC [43]: ≥ 100 µM
MIC [44]: ≥ 50 µM
